Results published in patent publication US9581587B2, “Sperm staining and sorting methods” (INGURAN, LLC, priority 2011, dated 2017).

Tests used:
[1] = tested on: sperm; test: Split quality, height of peak divided by height of valley (Example 5); type: cell-based, Jersey bull
Method: (§1) A single Jersey bull was collected at an initial sperm concentration 1900×10^6 sperm/ml in a volume of 5 ml. The progressive motility of the sperm was 65% with normal morphologies greater than 65%.
(§2) The entire ejaculate of sperm was suspended in first staining buffer, specifically a 7.4 pH TALP described in TABLE 1, to a concentration of 160×10^6 sperm per mL (determined on nucleocounter) and divided into three aliquots of about 20 mL into 50 mL Falcon tubes and pre-warmed for 10 minutes at 34° C. The DNA selective fluorescent dye, Hoechst 33342, was added and samples were held at 34° C. for 60 minutes. 3 different Hoechst 33342 Stain Levels were used=12 μL, 14 μL and 16 μL per 2 mL (effective concentrations of 48 μM, 56 μM, 64 μM).
(§3) Preparation of the second buffer including the dead quenching dye—A 2 L bag of TALP, described in TABLE 1, was adjusted to pH 5.60 using HCl and then sterile filtered. […] For each of the four dyes tested (R40-red food dye No. 40, Y5—yellow food dye No. 5, Y6—yellow food dye No. 6 and PR—phenol red), an appropriate number of milligrams of each powder was placed in a Erlenmeyer Flask and then an exact amount of TALP pH 5.60 was added to create a 250 μM concentration of the dye. The result was a working TALP stock for each dye with a 100% (125 μM) relative amount of dye 50% relative (62.5 μM) and 20% relative (25 μM) solutions were made by dilution of 100% by TALP pH 5.60.
(§4) Single tubes of stained sperm at each of the three Hoechst 33342 concentrations were treated with TALP pH 5.60 which had no dead quenching dye present. Single tubes using Vitamin B12 (red colored chemical) with stock concentration of 15 μM (12% relative) were tested.
(§5) After this “bulk” staining for 60 minutes, 1 mL aliquots of stained sperm were combined with 1 mL aliquots of the second buffer including the dead quenching dyes. Samples sat for approximately 30 minutes at room temperature before being analyzed on a MoFlo SX (Beckman Coulter, USA) sperm sorting flow cytometer. Event rates were held as close to 13,000 as possible at the point of data acquisition.
(§6) The total number of individual treatments was 42 tubes, each containing 2 mL of stained sample. The alignment of the sorter was established using nuclei and confirmed with live sample from the 50% Red 40 series. Once good alignment was established, each tube was placed on the sorter long enough to establish a stabile dead gate population (about 30 seconds) and then a screenshot was taken and saved as a .jpeg image. This approach of rapidly documenting each sample is used to assure the most consistent alignment between all samples. Realignment of sorter will not cause differences in the intensities of live and dead gate populations but will cause differences in split quality.
(§7) FIG. 4 illustrates an example histogram. The ratio of dead gate intensity divided by live gate intensity is created by dividing the distance “A” by the distance “B” shown as a percentage. Lower values mean higher levels of quenching. The ratio of peak height divided by valley height is created by dividing the distance “C” by the distance “D”. A value of 1.00 means “no split” while higher values mean “better splits”.

[2] = tested on: membrane compromised sperm; test: Dead gate intensity, yellow 5 and phenol red at higher concentrations (Example 6); type: cell-based, Jersey bull; details: for Intensity: Hoechst 12 μL/2 mL
Method: (§8) A single Jersey bull was collected at an initial sperm concentration 1810×10^6 sperm/ml in a volume of 3.9 ml. The progressive motility of the sperm was 65% with normal morphologies greater than 50%.
(§9) Sperm were suspended at 320 million per mL in 30 mL a first buffer, (TALP described in table 1 at a pH 7.4) with 12 μL of Hoechst 33342 per 2 mL (48 μM) of stain and incubated for 1 hour at 34° C. Stained sperm was then placed as 1 mL aliquots in sample tubes and a 1 mL volume of the appropriate TALP was added. The same second buffer was used as example 1, namely a modified 5.60 pH TALP.
(§10) Each of the stained samples was sorted on a MoFlo SX (Beckman Coulter, USA) as described in Example 6. Screen shots were taken and the dead gate intensity and the split quality were measured in the same way described in Example 1 and recorded in TABLE 14.

[3] = tested on: sperm; test: Split quality PV (Example 6); type: cell-based, Jersey bull; details: for PV: Hoechst 12 μL/2 mL, resulting pH 6.70
Method: as §8, §9, §10

[4] = tested on: membrane compromised sperm; test: Dead gate intensity divided by live gate intensity, flow cytometer (Example 5); type: cell-based; details: for ability to create a dead gate population (ordering of the four dyes): from dead and live intensity data of Table 13
Method: as §1, §2, §3, §4, §5, §6, §7

[5] = dye 62.5 μM, Hoechst 16 μL/2 mL
[6] = dye 25 μM, Average over Hoechst levels
[7] = dye 62.5 μM, Average over Hoechst levels
[8] = dye 62.5 μM, Hoechst 12 μL/2 mL
[9] = dye 62.5 μM, Hoechst 14 μL/2 mL
[10] = dye 125 μM, Average over Hoechst levels

| SMILES | Height of Peak/Height of Valley ([1]; dye 25 μM, Hoechst 16 μL/2 mL) | Height of Peak/Height of Valley [1, 5] | Dead Intensity [4, 6] [%] | Dead Intensity ([4]; dye 25 μM, Hoechst 12 μL/2 mL) [%] | Dead Intensity ([4]; dye 25 μM, Hoechst 14 μL/2 mL) [%] | Dead Intensity ([4]; dye 25 μM, Hoechst 16 μL/2 mL) [%] | Dead Intensity [4, 7] [%] | Dead Intensity [4, 8] [%] | Dead Intensity [4, 9] [%] | Dead Intensity [4, 5] [%] | Dead Intensity [4, 10] [%] | Dead Intensity ([4]; dye 125 μM, Hoechst 12 μL/2 mL) [%] | Dead Intensity ([4]; dye 125 μM, Hoechst 14 μL/2 mL) [%] | Dead Intensity ([4]; dye 125 μM, Hoechst 16 μL/2 mL) [%] | Height of Peak/Height of Valley ([1]; dye 125 μM, Hoechst 14 μL/2 mL) | Intensity ([2]; dye 62.5 μM, resulting pH 6.70) [%] | PV ([3]; dye 62.5 μM) | ability to create a dead gate population (ordering of the four dyes) [4] | other results |
| --- | --- | --- | --- | --- | --- | --- | --- | --- | --- | --- | --- | --- | --- | --- | --- | --- | --- | --- | --- |
| O=S1(=O)OC(c2ccc(O)cc2)(c2ccc(O)cc2)c2ccccc21 [Phenol Red, phenolsulfonphthalein] | 1.00 | 1.00 | 94 | 94 | 97 | 90 | 87 | 90 | 90 | 80 | 79 | 80 | 80 | 78 | – | – | – | – | Height of Peak/Height of Valley ([1]; dye 125 μM, Hoechst 16 μL/2 mL): 1.00; amount of dye needed for a similar dead gate intensity ratio as red food dye No. 40 and yellow food dye No. 6 [2]: twelve; Intensity ([2]; dye 125 μM, resulting pH 6.70): 79%; Intensity ([2]; dye 250 μM, resulting pH 6.70): 70%; Intensity ([2]; dye 500 μM, resulting pH 6.70): 67%; Intensity ([2]; dye 750 μM, resulting pH 6.70): 55%; Intensity ([2]; dye 875 μM, resulting pH 6.70): 45%; Intensity ([2]; dye 1250 μM, second buffer pH 5.60, resulting pH 6.70): 41%; split improvement in understained sample ([3]; 12 μL/2 mL Hoechst 33342, control samples had no split): created a split improvement; PV ([3]; dye 125 μM): 1.00 |
| COc1cc(S(=O)(=O)O)c(C)cc1N=Nc1c(O)ccc2cc(S(=O)(=O)O)ccc12 [Red 40, 6-hydroxy-5-[(2-methoxy-5-methyl-4-sulfophenyl)azo]-2-naphthalenesulfonic acid, reference compound] | 1.00 | 1.00 | 68 | 68 | 72 | 65 | 52 | 53 | 53 | 50 | 38 | 37 | 41 | 35 | 2.00 | 53 | 1.00 | about equal and better than the remaining dyes | Height of Peak/Height of Valley ([1]; dye 25 μM, Average for 12 μL and 14 μL stain series): 2.00 |
| O=S(=O)([O-])c1ccc(N=Nc2c(O)ccc3cc(S(=O)(=O)[O-])ccc23)cc1.[Na+].[Na+] [Yellow 6, Disodium 6-hydroxy-5[(4-sulfophenyl)azo]-2-naphthalenesulfononate] | – | 1.00 | 71 | 68 | 74 | 70 | 51 | 50 | 52 | 52 | 39 | 37 | 40 | 40 | 1.80 | 50 | 1.00 | about equal and better than the remaining dyes | Height of Peak/Height of Valley [1, 8]: 1.70 |
